{"source": "patent US9018438B2", "about": "“Screening method for anticancer drugs” (Kyoto University, priority 2010, dated 2015)", "test_system": "Reck gene promoter", "assay": "SEAP assay in YM3 cells (Reck gene promoter-reporter system)", "type": "cell-based, mouse", "protocol": "A 4.1-kb upstream region of a mouse Reck gene (Gene ID: 53614, Chromosome 4—NC—000070.5 43884251-43888453) was inserted into a pSEAP2-Basic vector (Clontech) to give a pSEAP-RP4.1 plasmid. […] Biochem Biophys Res Commun 1999; 264: 668-675.). […] TF323-C3 cells can be distributed from one of the inventors Makoto Noda.\nYM3 cells were seeded onto 96-well plates at 1×10^4 cells in 100 μl per well and incubation was performed for 5 hours to allow the cells to settle. A compound solution (500 μM, 1 μl) was added to the medium. The employed test compounds were those in the chemical library Prestwick Chemical Library (Prestwick Chemical, Illkirch, France), which is composed of 880 structurally diverse known bioactive compounds, dissolved in nano-pure grade dimethyl sulfoxide (DMSO; Wako). […] A vehicle (DMSO, 1 μl) alone as a negative control and hypothemycin (HPM, 1 mg/ml) as a positive control were added to two wells per plate. Each sample was tested on two different plates (duplicate samples).\nAfter incubation for 48 hours, a portion (10 μl) of the culture supernatant was sampled, incubated at 65° C. (heat treatment) for 30 minutes, and then subjected to the SEAP assay using Great EscAPe™ SEAP Chemiluminescence Detection Kit (Takara Bio). The remaining medium and the cells were subjected to the cell-counting assay using SF reagent. That is, SF reagent (Nacalai) (10 μl per well) was added to the medium, the plates were incubated for 3 hours in a CO2 incubator, and the absorbance at 450 nm (A450) was measured to obtain relative cell numbers. For the SEAP activity data, “SEAP measured value/A450 value” was defined as “SEAP activity per cell”, and the value obtained by dividing “SEAP activity per cell” of each compound by “SEAP activity per cell” of the negative control was defined as “relative SEAP activity”. The mean “relative SEAP activity” of the duplicate samples and the standard error thereof were determined. For the cell number data, the value obtained by dividing the SF measured value of each compound by the SF measured value of the negative control was defined as “relative cell number”, and the mean value of the duplicate samples and the standard error thereof were determined. Samples with a large standard error were tested again. In the experiment, duplicate samples were prepared each in a regular liquid medium and in a liquid medium containing Dox (2 μg/ml), and four mean values (the relative cell number and the relative SEAP activity in the Ras-ON state and the relative cell number and the relative SEAP activity in the Ras-OFF state) were obtained (see FIG. 3).", "key": {"[1]": {"conditions": "in the presence of Dox (HRAS12V-off)"}, "[2]": {"conditions": "relative SEAP activity at optimal conc., YM3 cells, regular medium (Ras-ON)"}}, "note": "Counter-ions that a name gives are not always drawn. Like-named read-outs stand apart in the source and are kept apart here.", "data": [{"molecule": "O=C1c2c(O)ccc(O)c2C(=O)c2c(NCCNCCO)ccc(NCCNCCO)c21", "note": "[Mitoxantrone dihydrochloride]", "values": [{"measurement": "Activity in Dox", "setting": "[1]", "value": "+ (more than 1.9-fold)"}, {"measurement": "Induction (fold)", "setting": "[2]", "value": 3.60, "unit": "fold"}]}, {"molecule": "CCOC(=O)NC1=C(N2CC2)C(=O)C(NC(=O)OCC)=C(N2CC2)C1=O", "note": "[Diaziquone]", "values": [{"measurement": "Activity in Dox", "setting": "[1]", "value": "± (between 1.9 and 1.5-fold)"}, {"measurement": "Induction (fold)", "setting": "[2]", "value": 3.54, "unit": "fold"}]}, {"molecule": "COc1cc([C@@H]2c3cc4c(cc3[C@H](O)[C@H]3COC(=O)[C@H]23)OCO4)cc(OC)c1OC", "note": "[Podophyllotoxin]", "values": [{"measurement": "Activity in Dox", "setting": "[1]", "value": "± (between 1.9 and 1.5-fold)"}, {"measurement": "Induction (fold)", "setting": "[2]", "value": 2.48, "unit": "fold"}]}, {"molecule": "COc1cccc2c1C(=O)c1c(O)c3c(c(O)c1C2=O)C[C@@](O)(C(C)=O)C[C@@H]3O[C@H]1C[C@H](N)[C@H](O)[C@H](C)O1", "note": "[Daunorubicin hydrochloride]", "values": [{"measurement": "Activity in Dox", "setting": "[1]", "value": "+ (more than 1.9-fold)"}, {"measurement": "Induction (fold)", "setting": "[2]", "value": 6.22, "unit": "fold"}]}, {"molecule": "COc1cc(O)c2c(c1)[C@H]1O[C@@H]1C[C@H](O)[C@H](O)C(=O)/C=C\\C[C@H](C)OC2=O", "note": "[HPM, hypothemycin]", "values": [{"measurement": "SEAP up-regulation in YM3 cells", "setting": "1 μg/ml", "value": "up-regulated"}, {"measurement": "up-regulation of SEAP activity", "setting": "positive control, typical", "value": "about twofold"}]}, {"molecule": "C[C@H]1c2cccc(O)c2C(=O)C2=C(O)[C@]3(O)C(=O)C(C(N)=O)=C(O)[C@@H](N(C)C)[C@@H]3[C@@H](O)[C@@H]21", "note": "[Doxycycline hydrochloride]", "values": [{"measurement": "Activity in Dox", "setting": "[1]", "value": "− (less than 1.5-fold)"}, {"measurement": "Induction (fold)", "setting": "[2]", "value": 1.96, "unit": "fold"}]}, {"molecule": "O=C(c1ccc(OCCN2CCCCC2)cc1)c1c(-c2ccc(O)cc2)sc2cc(O)ccc12", "note": "[Raloxifene hydrochloride]", "values": [{"measurement": "Activity in Dox", "setting": "[1]", "value": "− (less than 1.5-fold)"}, {"measurement": "Induction (fold)", "setting": "[2]", "value": 2.17, "unit": "fold"}]}, {"molecule": "CC[C@@]1(O)C(=O)OCc2c1cc1n(c2=O)Cc2cc3ccccc3nc2-1", "note": "[Camptothecine (S, +)]", "values": [{"measurement": "Optimal conc.", "value": 5.00, "unit": "µM"}, {"measurement": "Activity in Dox", "setting": "[1]", "value": "+ (more than 1.9-fold)"}, {"measurement": "Induction (fold)", "setting": "[2]", "value": 7.71, "unit": "fold"}]}, {"molecule": "COc1cc([C@@H]2c3cc4c(cc3[C@@H](O[C@@H]3O[C@@H]5CO[C@@H](C)O[C@H]5[C@H](O)[C@H]3O)[C@H]3COC(=O)[C@H]23)OCO4)cc(OC)c1O", "note": "[Etoposide]", "values": [{"measurement": "Activity in Dox", "setting": "[1]", "value": "+ (more than 1.9-fold)"}, {"measurement": "Induction (fold)", "setting": "[2]", "value": 1.99, "unit": "fold"}]}, {"molecule": "CC1=CC(=O)c2ccccc2C1=O", "note": "[Menadione]", "values": [{"measurement": "Activity in Dox", "setting": "[1]", "value": "+ (more than 1.9-fold)"}, {"measurement": "Induction (fold)", "setting": "[2]", "value": 3.21, "unit": "fold"}]}, {"molecule": "CCc1nc(N)nc(N)c1-c1ccc(Cl)cc1", "note": "[Pyrimethamine]", "values": [{"measurement": "Activity in Dox", "setting": "[1]", "value": "± (between 1.9 and 1.5-fold)"}, {"measurement": "Induction (fold)", "setting": "[2]", "value": 2.33, "unit": "fold"}]}, {"molecule": "CCN(CC)CCNc1ccc(CO)c2sc3ccccc3c(=O)c12", "note": "[Hycanthone]", "values": [{"measurement": "Activity in Dox", "setting": "[1]", "value": "+ (more than 1.9-fold)"}, {"measurement": "Induction (fold)", "setting": "[2]", "value": 2.02, "unit": "fold"}]}, {"molecule": "Clc1cc(Cl)c(OCC#CI)cc1Cl", "note": "[Haloprogin]", "values": [{"measurement": "Activity in Dox", "setting": "[1]", "value": "+ (more than 1.9-fold)"}, {"measurement": "Induction (fold)", "setting": "[2]", "value": 3.48, "unit": "fold"}]}, {"molecule": "C1CCC(C(CC2CCCCN2)C2CCCCC2)CC1", "note": "(stereo not shown) [Perhexiline maleate]", "values": [{"measurement": "Activity in Dox", "setting": "[1]", "value": "+ (more than 1.9-fold)"}, {"measurement": "Induction (fold)", "setting": "[2]", "value": 2.28, "unit": "fold"}]}, {"molecule": "C[C@@H]1C[C@@H]([C@H](O)CC2CC(=O)NC(=O)C2)C(=O)[C@@H](C)C1", "note": "[Cycloheximide]", "values": [{"measurement": "Activity in Dox", "setting": "[1]", "value": "± (between 1.9 and 1.5-fold)"}, {"measurement": "Induction (fold)", "setting": "[2]", "value": 2.29, "unit": "fold"}]}, {"molecule": "COc1cc(/C=C/C(=O)N2CCC=CC2=O)cc(OC)c1OC", "note": "[Piperlongumine]", "values": [{"measurement": "Optimal conc.", "value": 5.00, "unit": "µM"}, {"measurement": "Activity in Dox", "setting": "[1]", "value": "− (less than 1.5-fold)"}, {"measurement": "Induction (fold)", "setting": "[2]", "value": 2.06, "unit": "fold"}]}, {"molecule": "CC[C@H]1CN2CCc3cc(OC)c(OC)cc3[C@@H]2C[C@@H]1C[C@H]1NCCc2cc(O)c(OC)cc21.Cl.Cl.O.O.O.O.O.O.O", "note": "[Cephaeline dihydrochloride heptahydrate]", "values": [{"measurement": "Optimal conc.", "value": 5.00, "unit": "µM"}, {"measurement": "Activity in Dox", "setting": "[1]", "value": "+ (more than 1.9-fold)"}, {"measurement": "Induction (fold)", "setting": "[2]", "value": 5.61, "unit": "fold"}]}, {"molecule": "Thimerosal", "values": [{"measurement": "Activity in Dox", "value": "+ (key: +: more than 1.9-fold; ±: between 1.9 and 1.5-fold; −: less than 1.5-fold)"}, {"measurement": "Induction (fold)", "value": 9.33, "unit": "fold"}, {"measurement": "Optimal conc.", "value": 5.00, "unit": "µM"}]}, {"molecule": "CN(C)CCCN1c2ccccc2Sc2ccc(C(F)(F)F)cc21", "note": "[Triflupromazine hydrochloride]", "values": [{"measurement": "Activity in Dox", "value": "− (key: +: more than 1.9-fold; ±: between 1.9 and 1.5-fold; −: less than 1.5-fold)"}]}, {"molecule": "CCN(CC)C(=S)SSC(=S)N(CC)CC", "note": "[Disulfiram]", "values": [{"measurement": "Activity in Dox", "setting": "[1]", "value": "+ (more than 1.9-fold)"}, {"measurement": "Induction (fold)", "setting": "[2]", "value": 18.0, "unit": "fold"}]}]}
